In patent US11691947B2, “Isoindoline compositions and methods for treating neurodegenerative disease” (priority 2014, dated 2023):
Entries after “also recorded” stand apart in the source; their conditions may differ.

Key:
[1] = test system: Abeta 42 oligomer-induced synapse loss in primary neurons; test: Abeta oligomer-induced synapse loss assay; format: cell-based
Description: The number of synapses can also be quantified in this assay by immunofluorochemistry.
Primary hippocampal neuronal culture is established as in the membrane trafficking assay above. […] Pretreatment with test compounds for 1 hr and addition of Abeta oligomers or no oligomer (vehicle alone) is followed by incubation for an additional 23 hrs.
The plates are then washed 3× with PBS for 5 min each. The plates are blocked at RT for 1 hr in 5% goat serum and 0.5% Triton X-100 in PBS. Primary antibodies (anti-MAP 2 polyclonal, Millipore #AB5622 and anti-Beta Amyloid 6E10 monoclonal, Covance #SIG-39300, at 1 microgram/ml, and rabbit polyclonal anti-synaptophysin, Anaspec, at 0.2 microgram/ml) were diluted 1:1000 in 5% goat serum with PBS. Primary antibodies are incubated overnight at 4° C. The plates are then washed 3× with PBS for 5 min each. Secondary antibodies (Alex Flor 488 polyclonal, Invitrogen #A11008 and Alexa Flor 647 monoclonal, Invitrogen #A21235) are diluted 1:1000 in 5% goat serum with PBS. Secondary antibodies are incubated at RT for 1 hr. The plates are washed once with PBS. DAPI (4′,6-diamidino-2-phenylindole, Invitrogen) is then applied at 0.03 ug/ul and incubated at RT for 5 min, then washed with PBS.

[2] = test system: MDA-MB-435 or MDA-MB231 or SKOV-3 cells; test: MTS tumor cell viability assay (agonist/antagonist activity of sigma-2 ligands); format: cell-based
Description: The cytotoxicity of test compounds is determined using the CellTiter96 Aqueous One Solution Assay (Promega, Madison, Wis.). Briefly, MDA-MB-435 or MDA-MB231 or SKOV-3 cells were seeded in a 96-well plate at a density of 2000 cells/well on the day prior to treatment with sigma-2 receptor selective ligands. After a 24 hour treatment, the CellTiter 96 AQueous One Solution Reagent is added to each well, and the plate incubated for 2 hours at 37° C. The plate is read at 490 nm in a Victor3 plate reader (PerkinElmer Life and Analytical Sciences, Shelton, Conn.). The EC^50 value, defined as the concentration of the sigma ligand required to inhibit cell viability by 50% relative to untreated cells, is determined from the dose response curve for each cell line. Siramesine is accepted as an agonist.

neuronal cultures = test: Nuclear intensity/morphology in neuronal cultures treated with sigma compounds; format: cell-based; details: 24 hours treatment, compared to vehicle
Description: Neuronal cultures are treated with various concentrations of sigma compounds for 24 hours and nuclear intensity compared to vehicle is measured. […] Isoindoline test compounds of the present disclosure are analyzed in this assay to help determine neuronal phenotype, results are shown in Table 2.

caspase-3 = details: cited from earlier work; for caspase-3 activation: tumor cells and neurons, WO2013/029060 FIGS. 10A and 10B

SMILES | elimination of Abeta 42 oligomer-induced synapse loss [1] | Action [2] | nuclear morphology / nuclear intensity in neurons (neuronal cultures) | block of caspase-3 activation by agonist SV-119 in neurons (caspase-3; neurons, WO2013/029060 FIG. 10B) | caspase-3 activation (caspase-3) | inhibition of caspase-3 activation in tumor cells (caspase-3; tumor cells, WO2013/029060 FIG. 10A) | recovery of synapse loss [1] [%]
CCCN(CCC)CCc1ccc(OC)c(OCCc2ccccc2)c1 [NE-100] | completely eliminated synapse loss | – | – | – | – | – | –
COc1cc2c(cc1OC)CN(CCCCNC(=O)c1cc(C)ccc1OC)CC2 [RHM-1, N-[4-(3,4-dihydro-6,7-dimethoxyisoquinolin-2(1H)-yl)butyl]-2-methoxy-5-methylbenzamide] | – | Antagonist | do not decrease nuclear intensity | not able to block activation | do not induce caspase-3 activity | inhibits the activation in tumor cells | –
CCC(Oc1ccc(Cl)cc1)C(=O)OC1CC2CCC(C1)N2C (stereo not drawn) [SM-21] | only weakly active in eliminating synapse loss | – | – | – | – | – | 20
COc1ccc(C)cc1NC(=O)OC1C[C@H]2CCC[C@@H](C1)N2CCCCCCN (stereo partly drawn) [SV-119] | – | Full agonist | cause significant abnormal nuclear morphology in neurons | – | activate caspase-3 in tumor cells and neurons | – | –
Fc1ccc(-n2cc(CCCCN3CCC4(CC3)OCc3ccccc34)c3ccccc32)cc1 [Siramesine] | – | Full agonist | cause significant abnormal nuclear morphology in neurons | – | activate caspase-3 in tumor cells and neurons; also recorded: induces caspase-3 activity | – | –
O=C(CCCN1CCC(O)(c2ccc(Cl)cc2)CC1)c1ccc(F)cc1 [haloperidol] | completely eliminated synapse loss | – | – | – | – | – | –
